Experimental data taken from ChEMBL document CHEMBL1201862, “PubChem BioAssay data set” (2004).
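Five concentrations, 48 hours, 96-well plates. The concentration for 50% growth inhibition is given as GI50.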 Calls of active or inactive are those of the source. Rule as the data show it: active = GI50 up to about 1.1 µM and inactive = higher.

Key:
Assay in all cases: inhibition of tumour cell growth, NCI panel, 48 h
786-0 = system: 786-0
COLO 205 = system: COLO 205
DU-145 = system: DU-145
EKVX = system: EKVX
HCC 2998 = system: HCC 2998
Hs-578T = system: Hs-578T
MOLT-4 = system: MOLT-4
NCI-H226 = system: NCI-H226
OVCAR-3 = system: OVCAR-3
OVCAR-8 = system: OVCAR-8
RPMI-8226 = system: RPMI-8226
RXF 393 = system: RXF 393
SF-295 = system: SF-295
SK-MEL-5 = system: SK-MEL-5
SNB-19 = system: SNB-19
TK-10 = system: TK-10
UACC-62 = system: UACC-62
A498 = system: A498
OVCAR-4 = system: OVCAR-4
MDA-MB-231 = system: MDA-MB-231

SMILES	GI50 (786-0)	GI50 (COLO 205)	GI50 (DU-145)	GI50 (EKVX)	GI50 (HCC 2998)	GI50 (Hs-578T)	GI50 (MOLT-4)	GI50 (NCI-H226)	GI50 (OVCAR-3)	GI50 (OVCAR-8)	GI50 (RPMI-8226)	GI50 (RXF 393)	GI50 (SF-295)	GI50 (SK-MEL-5)	GI50 (SNB-19)	GI50 (TK-10)	GI50 (UACC-62)	GI50 (A498)	GI50 (OVCAR-4)	GI50 (MDA-MB-231)
CC(C)(C)OC(=O)NCCNC(=O)OCc1ccccc1	> 100 µM (inactive)	> 100 µM (inactive)	> 100 µM (inactive)	> 100 µM (inactive)	> 100 µM (inactive)	> 100 µM (inactive)	> 100 µM (inactive)	> 100 µM (inactive)	> 100 µM (inactive)	> 100 µM (inactive)	> 100 µM (inactive)	> 100 µM (inactive)	> 100 µM (inactive)	50.6 µM (inactive)	> 100 µM (inactive)	> 100 µM (inactive)	> 100 µM (inactive)			
CN(C)NC(=O)/C(=C/c1ccc(Cl)cc1)NC(=O)c1ccccc1	> 100 µM (inactive)	45.2 µM (inactive)		> 100 µM (inactive)	> 100 µM (inactive)		> 100 µM (inactive)	> 100 µM (inactive)	> 100 µM (inactive)	> 100 µM (inactive)	> 100 µM (inactive)	> 100 µM (inactive)	> 100 µM (inactive)	> 100 µM (inactive)	> 100 µM (inactive)	> 100 µM (inactive)	> 100 µM (inactive)	> 100 µM (inactive)	> 100 µM (inactive)	
Cc1ccc(OCC2OC(n3cnc4c(Br)nc(Br)nc43)CC2Oc2ccc(C)cc2)cc1 (stereo not given)	3.02 µM (inactive)	4.06 µM (inactive)	2.38 µM (inactive)	2.05 µM (inactive)	2.6 µM (inactive)		2.1 µM (inactive)	14.6 µM (inactive)	5.6 µM (inactive)	3.69 µM (inactive)	9.29 µM (inactive)	4.94 µM (inactive)	8.49 µM (inactive)	6.31 µM (inactive)	7.31 µM (inactive)	21.8 µM (inactive)	7.35 µM (inactive)	10.5 µM (inactive)	3.12 µM (inactive)	2.12 µM (inactive)
O=c1/c(=C\c2ccccc2)sc2n1C(c1ccccc1)C1(O)CCCCC1N=2 (stereo not given)	> 100 µM (inactive)				67.1 µM (inactive)		42.1 µM (inactive)	> 100 µM (inactive)	> 100 µM (inactive)	> 100 µM (inactive)	59.8 µM (inactive)			> 100 µM (inactive)	> 100 µM (inactive)	> 100 µM (inactive)	> 100 µM (inactive)	36.8 µM (inactive)	50.6 µM (inactive)	95.7 µM (inactive)
CS/C(=N\C#N)S/C=C/C(=O)c1ccc(Cl)cc1	20.8 µM (inactive)	25.4 µM (inactive)	25.6 µM (inactive)	66.5 µM (inactive)	42.4 µM (inactive)	32.7 µM (inactive)	< 0.01 µM (active)		15.2 µM (inactive)	20.2 µM (inactive)		19.6 µM (inactive)	29.1 µM (inactive)	15.9 µM (inactive)	42 µM (inactive)	23.6 µM (inactive)	22.9 µM (inactive)		64.7 µM (inactive)	
NCc1ccc(C(=O)O)cc1 [AMINOMETHYLBENZOIC ACID]	> 100 µM (inactive)		> 100 µM (inactive)	> 100 µM (inactive)	> 100 µM (inactive)		> 100 µM (inactive)	> 100 µM (inactive)	> 100 µM (inactive)	> 100 µM (inactive)		> 100 µM (inactive)	> 100 µM (inactive)	> 100 µM (inactive)	> 100 µM (inactive)	> 100 µM (inactive)	> 100 µM (inactive)	> 100 µM (inactive)	> 100 µM (inactive)	> 100 µM (inactive)
